Patent US20260132152A1, “SOLID FORMS OF AN ORALLY-DELIVERED BETA-LACTAMASE INHIBITOR AND USES THEREOF” (Venatorx Pharmaceuticals, Inc., priority 2019, published 2026)
≈ marks a conversion by molar mass, not a printed value. Where two headings read alike, the source gives them in different places.

Key:
Type in all cases: physicochemical
[1] = Dynamic vapor sorption (DVS) analysis, 5% RH to 95% RH and back to 5% RH at 10% RH increments; details: for State of sample after DVS analysis: after 5-95-5% RH cycle
Description: Moisture sorption/desorption data were collected on a VTI SGA-100 Vapor Sorption Analyzer. NaCl and PVP were used as calibration standards. Samples were not dried prior to analysis. Sorption and desorption data were collected over a range from 5% to 95% RH at 10% RH increments under a nitrogen purge (RH=relative humidity). The equilibrium criterion used for analysis was less than 0.0100% weight change in 5 minutes with a maximum equilibration time of 3 hours. Data were not corrected for the initial moisture content of the samples.
DVS analysis of Compound 1-ethanolate Form A was conducted from 5% relative humidity (RH) to 95% RH and back to 5% RH at 10% RH increments (FIG. 7). […] A loss of 1.8 wt % was observed between 55% RH and 65% RH possibly due to water displacing ethanol. After 65% RH, the sample gained 3.8 wt % between 65% RH and 95% RH. […] Weight loss (˜7.6 wt %) was observed between 95% RH and 5% RH (i.e., desorption). After DVS analysis, it was noted that the sample had deliquesced.
DVS analysis of Compound 1-ethanolate Form B (with minor Form A) was conducted from 5% RH to 95% RH and back to 5% RH at 10% RH increments (FIG. 12). The DVS isotherm of Form B is qualitatively similar to that of Form A. Form B lost 0.2 wt % upon equilibration at ˜5% RH. […] A weight loss of 1.1% was observed between 45% RH and 55% RH, possibly due to the displacement of the ethanol with water. After 55% RH, the sample gained 3.3 wt % between 55% RH and 95% RH. […] Weight loss (˜5.8 w1%) was observed during desorption from 95% RH to 5% RH.

[2] = Separate DVS analysis with stepped increase in relative humidity, 0% RH to 60% RH, 4 h per step, then XRPD; details: for Mass change in stepped DVS: at humidities higher than 40% RH, loss of ethanol from the boronate ester complex; for Mass increase in stepped DVS: from 0% RH to 40% RH; for Retention of crystal structure (XRPD after stepped DVS): up to 60% r.h.
Description: A second set of DVS experiments were conducted using a stepped method from 0% RH to 60% RH with steps of 10% RH and four hours of equilibration at each humidity value. […] The samples were placed on an aluminum holder and allowed to equilibrate at 0% RH before starting the following predefined humidity program; hold for 4 h at 0% RH, increase humidity by a step of 10% RH, hold for 4 h. repeat the above two steps five times until a value of 60% RH has been reached. The samples were then analyzed for crystallinity using the second set of XRPD conditions.

[3] = Mass spectrometric analysis of conversion of the ethanolate to Compound 1 in water; details: in the presence of water, high-resolution MS
Description: High resolution mass spectra from 50 to 3000 Da were collected with a Bruker Maxis —Plus QTOF mass spectrometer using an electrospray ionization source. The instrument was controlled and data analyzed using Bruker Compass v.4.4 software. The mass spectrometer was calibrated immediately prior to analyses and was operated in positive ionization mode using an Electrospray Ionization (ESI) source. Samples were prepared by dilution in absolute ethanol (without denaturants) or HPLC grade water prior to direct infusion into the ion source.
Mass spectrometric (MS) analyses were performed to confirm the structure of Compound 1-ethanolate Form A, and evaluate the ability of EtOH to dissociate from Compound 1-ethanolate in water. Compound 1-ethanolate Form A, and an amorphous preparation of ((2-ethylbutanoyl)oxy)methyl (R)-2-hydroxy-3-propionamido-3,4-dihydro-2H-benzo[e][1,2]oxaborinine-8-carboxylate were diluted in absolute EtOH or water and analyzed by high-resolution mass spectrometry. A sample of amorphous ((2-ethylbutanoyl)oxy)methyl (R)-2-hydroxy-3-propionamido-3.4-dihydro-2H-benzo[e]|1.2]oxaborinine-8-carboxylate, dissolved in absolute EtOH, was spiked with water prior to analysis. […] The exact mass observed for sodiated Compound 1-ethanolate was 442.2007 (difference=1.4 ppm vs. theoretical: C21H30BNO7Na: 442.2013 Da). […]

[4] = Visual solubility estimates by aliquot addition at ambient temperature
Description: Visual solubility estimates for Compound 1-ethanolate Form A were determined in a variety of solvents and solvent mixtures using an aliquot addition method to aid in experimental design.

[5] = Exposure to elevated RH (75%, 85%, 97%) at room temperature
Description: Samples of Compound 1-ethanolate Form A were exposed to elevated RH (75%, 85% and 97%) at room temperature for approximately 3 hours and 24 hours (Table 8).

[6] = Solvent-mediated interconversion slurries with seeds of Form A and Form B; details: slurries in 3% DCM in heptane and 5% EtOH in heptane, room temperature, ~2 weeks, XRPD
Description: Saturated solutions of Compound 1-ethanolate were prepared in 3% DCM in heptane and 5% EtOH in heptane.
Approximately equal amounts of Form A, and Form B (containing a minor amount of Form A) were added to the filtered saturated solutions, and the suspensions were slurried at room temperature for ˜2 weeks, and the isolated solids were observed by polarized light microscopy (PLM) and analyzed by XRPD.

CCOB1Oc2c(cccc2C(=O)OCOC(=O)C(CC)CC)C[C@@H]1NC(=O)CC [Compound 1-ethanolate Form B, ((2-ethylbutanoyl)oxy)methyl (R)-2-ethoxy-3-propionamido-3,4-dihydro-2H-benzo[e][1,2]oxaborinine-8-carboxylate]
State of sample after DVS analysis [1]: appeared to have deliquesced | Weight loss in DVS (desorption) ([1]; desorption from 95% RH to 5% RH): ~5.8 w1% | Weight loss upon equilibration ([1]; equilibration at ~5% RH): 0.2 wt % | Weight gain in DVS ([1]; sorption, between 5% RH and 45% RH): ~0.5 wt % | Weight loss in DVS ([1]; sorption, between 45% RH and 55% RH, possibly displacement of ethanol with water): 1.1% | Weight gain in DVS ([1]; sorption, between 55% RH and 95% RH): 3.3 wt % | Mass change in stepped DVS [2]: a decrease in mass was observed | Mass increase in stepped DVS [2]: 0.4 wt, -% | Retention of crystal structure (XRPD after stepped DVS) [2]: retained its predominant crystal structure for at least four hours

CCOB1Oc2c(cccc2C(=O)OCOC(=O)C(CC)CC)C[C@@H]1NC(=O)CC [Compound 1-ethanolate, ((2-ethylbutanoyl)oxy)methyl (R)-2-ethoxy-3-propionamido-3,4-dihydro-2H-benzo[e][1,2]oxaborinine-8-carboxylate]
Conversion to the free boronic acid (Compound 1) [3]: rapidly converted to the free boronic acid

CCOB1Oc2c(cccc2C(=O)OCOC(=O)C(CC)CC)C[C@@H]1NC(=O)CC [Compound 1-ethanolate Form A, ((2-ethylbutanoyl)oxy)methyl (R)-2-ethoxy-3-propionamido-3,4-dihydro-2H-benzo[e][1,2]oxaborinine-8-carboxylate]
solubility ([4]; Cyclohexane): <1 mg/mL | solubility ([4]; Heptane): <1 mg/mL | solubility ([4]; organic solvent or mixture, thermodynamic from solid, ACN, read-out: Solubility): > 66 mg/mL | solubility ([4]; organic solvent or mixture, thermodynamic from solid, Acetone, read-out: Solubility): 34 mg/mL (≈ 81.1 mM) | solubility ([4]; organic solvent or mixture, thermodynamic from solid, Anisole, read-out: Solubility): 35 mg/mL (≈ 83.5 mM) | solubility ([4]; organic solvent or mixture, thermodynamic from solid, Chloroform, read-out: Solubility): 36 mg/mL (≈ 85.9 mM) | solubility ([4]; organic solvent or mixture, thermodynamic from solid, Cyclohexane, read-out: Solubility): < 1 mg/mL | solubility ([4]; organic solvent or mixture, thermodynamic from solid, Cyclohexane:EtOAc 3:1 by volume, read-out: Solubility): 4 mg/mL (≈ 9.54 mM) | solubility ([4]; organic solvent or mixture, thermodynamic from solid, Cyclohexane:EtOH 90:10 by volume, read-out: Solubility): 17 mg/mL (≈ 40.5 mM) | solubility ([4]; organic solvent or mixture, thermodynamic from solid, DCM, read-out: Solubility): 34 mg/mL (≈ 81.1 mM) | solubility ([4]; organic solvent or mixture, thermodynamic from solid, DMF, read-out: Solubility): > 63 mg/mL | solubility ([4]; organic solvent or mixture, thermodynamic from solid, DMSO, read-out: Solubility): > 71 mg/mL | solubility ([4]; organic solvent or mixture, thermodynamic from solid, Diethyl Ether, read-out: Solubility): 9 mg/mL (≈ 21.5 mM) | solubility ([4]; organic solvent or mixture, thermodynamic from solid, EtOAc, read-out: Solubility): > 68 mg/mL | solubility ([4]; organic solvent or mixture, thermodynamic from solid, EtOH, read-out: Solubility): > 68 mg/mL | solubility ([4]; organic solvent or mixture, thermodynamic from solid, Heptane, read-out: Solubility): < 1 mg/mL | solubility ([4]; organic solvent or mixture, thermodynamic from solid, Heptane:MEK 2:1 by volume, read-out: Solubility): 22 mg/mL (≈ 52.5 mM) | solubility ([4]; organic solvent or mixture, thermodynamic from solid, IPA, read-out: Solubility): 34 mg/mL (≈ 81.1 mM) | solubility ([4]; organic solvent or mixture, thermodynamic from solid, IPOAc, read-out: Solubility): > 66 mg/mL | solubility ([4]; organic solvent or mixture, thermodynamic from solid, MEK, read-out: Solubility): 37 mg/mL (≈ 88.2 mM) | solubility ([4]; organic solvent or mixture, thermodynamic from solid, MTBE, read-out: Solubility): 22 mg/mL (≈ 52.5 mM) | solubility ([4]; organic solvent or mixture, thermodynamic from solid, Nitromethane, read-out: Solubility): > 68 mg/mL | solubility ([4]; organic solvent or mixture, thermodynamic from solid, TFE, read-out: Solubility): > 66 mg/mL | solubility ([4]; organic solvent or mixture, thermodynamic from solid, THF, read-out: Solubility): > 64 mg/mL | solubility ([4]; organic solvent or mixture, thermodynamic from solid, Toluene, read-out: Solubility): 33 mg/mL (≈ 78.7 mM) | solubility ([4]; organic solvent or mixture, thermodynamic from solid, Xylene, read-out: Solubility): 17 mg/mL (≈ 40.5 mM) | State of sample after DVS analysis [1]: deliquesced | Weight loss in DVS (desorption) ([1]; between 95% RH and 5% RH): ~7.6 wt % | Weight % chg ([1]; desorption, elapsed 731.2 min, sample RH 85.19%, 25.19 °C): 0.633% | Weight % chg ([1]; desorption, elapsed 918.9 min, sample RH 74.98%, 25.19 °C): −0.694% | Weight % chg ([1]; desorption, elapsed 1106.5 min, sample RH 65.14%, 25.19 °C): −1.716% | Weight % chg ([1]; desorption, elapsed 1296.4 min, sample RH 54.99%, 25.19 °C): −2.592% | Weight % chg ([1]; desorption, elapsed 1483.9 min, sample RH 45.11%, 25.19 °C): −3.308% | Weight % chg ([1]; desorption, elapsed 1671.4 min, sample RH 35.03%, 25.19 °C): −3.916% | Weight % chg ([1]; desorption, elapsed 1859.0 min, sample RH 25.06%, 25.19 °C): −4.432% | Weight % chg ([1]; desorption, elapsed 2044.7 min, sample RH 14.87%, 25.19 °C): −4.883% | Weight % chg ([1]; desorption, elapsed 2228.6 min, sample RH 5.67%, 25.19 °C): −5.275% | Hygroscopicity ([1]; from 5-55% RH): non-hygroscopic | Weight gain in DVS ([1]; sorption, between 5% RH and 55% RH): ~0.3 wt % | Weight loss in DVS ([1]; sorption, between 55% RH and 65% RH, possibly water displacing ethanol): 1.8 wt % | Weight gain in DVS ([1]; sorption, between 65% RH and 95% RH): 3.8 wt % | Weight % chg ([1]; sorption, elapsed 21.1 min, sample RH 5.15%, 25.19 °C): −0.043% | Weight % chg ([1]; sorption, elapsed 39.7 min, sample RH 14.86%, 25.19 °C): −0.003% | Weight % chg ([1]; sorption, elapsed 51.8 min, sample RH 24.90%, 25.20 °C): 0.051% | Weight % chg ([1]; sorption, elapsed 64.8 min, sample RH 34.83%, 25.19 °C): 0.120% | Weight % chg ([1]; sorption, elapsed 78.3 min, sample RH 44.87%, 25.19 °C): 0.214% | Weight % chg ([1]; sorption, elapsed 91.2 min, sample RH 54.86%, 25.18 °C): 0.316% | Weight % chg ([1]; sorption, elapsed 281.1 min, sample RH 65.03%, 25.18 °C): −1.494% | Weight % chg ([1]; sorption, elapsed 294.7 min, sample RH 74.65%, 25.20 °C): −1.170% | Weight % chg ([1]; sorption, elapsed 356.0 min, sample RH 84.85%, 25.19 °C): 0.451% | Weight % chg ([1]; sorption, elapsed 543.7 min, sample RH 94.83%, 25.19 °C): 2.311% | Weight % chg ([1]; start, elapsed 0.1 min, sample RH 0.99%, 25.18 °C): 0.000% | Mass change in stepped DVS [2]: a decrease in mass was observed | Mass increase in stepped DVS [2]: 0.3 wt, -% | Retention of crystal structure (XRPD after stepped DVS) [2]: retained its predominant crystal structure for at least four hours | Observation on exposure to elevated RH ([5]; 75% RH, after 3 hours): no deliquescence | Observation on exposure to elevated RH ([5]; 75% RH, after 24 hours): began deliquescing | Observation on exposure to elevated RH ([5]; 85% RH, after 3 hours): appeared wet with solids present | Observation on exposure to elevated RH ([5]; 85% RH, after 24 hours): deliquesced | Observation on exposure to elevated RH ([5]; 97% RH, after 3 hours): deliquescence was observed | Observation on exposure to elevated RH ([5]; 97% RH, after 24 hours): deliquesced | Thermodynamically stable polymorph [6]: the stable form at room temperature | Thermodynamically stable polymorph ([6]; listed as Polymorph form A): thermodynamically stable
